Legend:
[1] = tested on: healthy Beagle dogs; assay: 6-month target animal safety study: clinical observations, physical, neurological and ophthalmoscopic examinations; details: for Skin discoloration, number of animals affected / Skin lesion w/discharge, number of animals affected / Skin lesion, number of animals affected / Skin scab paw, number of animals affected / Skin thickening (paws), number of animals affected / Swollen paws, number of animals affected: 8 dogs per group
Protocol: This was a randomized, controlled, blinded, 6-month study with a parallel design. Using a block randomization procedure stratified by sex, 20 males and 20 females were randomly allocated on study day − 3 to one of the following five groups (4 males and 4 females per group): Group 1: Untreated control (sham-dosed with 5 mL of tap water); Group 2: Ilunocitinib film-coated tablets at a target dose level of 0.8 mg/kg (1X); Group 3: Ilunocitinib film-coated tablets at a target dose level of 1.6 mg/kg (2X); Group 4: Ilunocitinib film-coated tablets at a target dose level of 2.4 mg/kg (3X) and Group 5: Ilunocitinib film-coated tablets at a target dose level of 4.0 mg/kg (5X). The experimental unit was the individual dog.
The dose levels were selected based on the maximum therapeutic dose (i.e. 0.8 mg/kg, 1X) and the requirement to test multiples of the maximum therapeutic dose, i.e. 2X, 3X and 5X the therapeutic dose. Doses for each individual animal were based on the most recent body weight. Commercial tablets of ilunocitinib, available in 4.8, 6.4, 8.5, and 15 mg strength, were dispensed. These tablets were combined appropriately to meet the individual’s precise dosage requirement, ensuring there was no underdosing. […] Approximately 5 mL of water was given after each administration and the mouth checked to ensure the tablets had been swallowed. Control animals were sham treated with 5 mL of tap water.
Animals were observed twice daily, at least 6 h apart, over the entire course of the study for morbidity, mortality and injury. Clinical examinations of each dog were performed before treatment administration and at approximately 2 and 5 h post treatment. Observations included, but were not limited to, evaluation of skin, fur, eyes, ears, nose, oral cavity, thorax, abdomen, external genitalia, limbs and feet, respiratory and circulatory signs, autonomic effects such as salivation, and nervous system effects including tremors, convulsions, reactivity to handling, and unusual behavior.
Body weights for all animals were recorded during the acclimation phase (study days − 12 and − 1) and then once weekly during the study. Food consumption (dry and wet food) was measured and recorded daily. […] Assessments including overall general condition and behavior, ocular inspection, integument, musculoskeletal, gastrointestinal, body temperature, cardiovascular and respiratory systems including auscultation-based assessment, reproductive, lymphatic, urinary and nervous systems.

[2] = 6-month safety study: body weights and food consumption; assay type: in vivo, dog
Protocol: (§1) Endpoints measured multiple times post-treatment that included a pre-treatment measurement (Serum chemistry, C-reactive protein, coagulation, hematology, urinalysis, body weight, body weight changes and food consumption) were analyzed using repeated measures analysis of covariance (RMANCOVA) with ‘treatment’, ‘time’, and ‘sex’; the two-way interactions ‘treatment by time’, ‘treatment by sex’, and ‘sex by time’; the three-way interaction ‘treatment by time by sex’ and a covariate all as fixed effects. The last available pre-treatment value was used as the covariate.

[3] = tested on: healthy Beagle dogs; assay: 6-month safety study: clinical pathology (hematology, coagulation, clinical chemistry, C-reactive protein, urinalysis); assay type: in vivo, dog; details: for MCHC, effect compared to 0X / Hb (hemoglobin), effect compared to 0X / Total Protein, effect compared to 0X / MCH, effect compared to 0X / HCT (hematocrit), effect compared to 0X / RBC, effect compared to 0X: all study days; for Hb (hemoglobin), effect compared to 0X / HCT (hematocrit), effect compared to 0X / RBC, effect compared to 0X: pooled sexes; for Total Protein, effect compared to 0X: significant in pooled by sex, males (2X, 3X, 5X) females (3X, 5X); for Albumin, effect compared to 0X: beginning on study day 57; for Eosinophils, effect compared to 0X: study days 29–183, females only; for Fibrinogen, effect compared to 0X: study days 57–183, association with interdigital cysts
Protocol: Blood samples were collected from the jugular vein for the evaluation of hematology, clinical chemistry and coagulation variables at pre-test, and on study days 29, 57, 85, 113, 141, 169 and 183. The complete panel of clinical pathology parameters (hematology, blood chemistry and urinalysis) according to VICH Guideline 43 [10] are listed in Table 1. Urine samples were collected using steel pans placed under the cages for at least 16 h at the same timepoints.
as §1
If the interaction terms were significant (P ≤ 0.10 level for two-way interactions and P ≤ 0.05 for the three-way interaction), treated groups were compared to the control either within each sex (treatment by sex significant), within each time point (treatment by time significant) or main effect only (neither treatment by sex nor treatment by time significant).

[4] = tested on: healthy Beagle dogs; details: dog, in vivo
Protocol: At study termination (study day 183), the dogs were humanely euthanized by an intravenous injection of pentobarbital sodium/phenytoin solution under sedation with 6.6–13.2 mg/kg Telazol® (tiletamine/zolazepam) subcutaneous injection. Gross and microscopic examinations were carried out on all animals by a board-certified veterinary pathologist.

[5] = tested on: dogs; details: field conditions; cited from earlier work
[6] = tested on: dogs; design: method as in internal report; details: dogs maintained on concrete floors with corn cob bedding; ref internal report; cited from earlier work
[7] = Plasma pharmacokinetics of ilunocitinib (LC-MS/MS, non-compartmental analysis)
Protocol: Samples were collected at pre-dose and at 0.5, 1, 2, 5, 8 and 24 h post-dosing on the day of the first and last dose (study days 1 and 182) and at pre-dose and at 1 and 24 h post-dosing at study day 85. Blood samples were collected in tubes containing K2 EDTA. Blood was processed to plasma within one hour of collection and plasma samples were stored frozen at -20 °C until analyzed.
The bioanalytical data were processed as individual concentration vs. time profiles using a non-compartmental analysis (NCA). Calculations were performed with the software Phoenix WinNonlin (version 8.3; Certara, USA). Tmax and Cmax were derived from observed values. AUCs were calculated using the Linear Up Log Down method. In addition, T1/2 was calculated using the best fit method and dose, time and sex effects were evaluated based on Cmax and AUClast ratios.

[8] = 1X (0.8 mg/kg oral once daily, 6 months)
[9] = 2X (1.6 mg/kg oral once daily, 6 months)
[10] = 3X (2.4 mg/kg oral once daily, 6 months)
[11] = 5X (4.0 mg/kg oral once daily, 6 months)
[12] = 1X group (0.8 mg/kg/day, 6 months)
[13] = 2X group (1.6 mg/kg/day, 6 months)
[14] = 3X group (2.4 mg/kg/day, 6 months)
[15] = 5X group (4.0 mg/kg/day, 6 months)
[16] = males at 2X, 3X, and 5X and females at 5X, beginning study day 57, 85, or 113 through study day 183

N#CCC1(n2cc(-c3ncnc4[nH]ccc34)cn2)CN(S(=O)(=O)C2CC2)C1 [ilunocitinib]
serious adverse effects during the course of the study ([1]; 0.8 to 4.0 mg/kg once daily for 6 months): no serious adverse effects
Skin discoloration, number of animals affected [1, 8]: 1
Skin lesion w/discharge, number of animals affected [1, 8]: 1
Skin lesion, number of animals affected [1, 8]: 4
Skin scab paw, number of animals affected [1, 8]: 0
Skin thickening (paws), number of animals affected [1, 8]: 0
Swollen paws, number of animals affected [1, 8]: 1
interdigital furunculosis, or cysts, with or without discharge on one or more paws ([1]; 1X to 5X): dose-dependent presence
Skin discoloration, number of animals affected [1, 9]: 1
Skin lesion w/discharge, number of animals affected [1, 9]: 3
Skin lesion, number of animals affected [1, 9]: 5
Skin scab paw, number of animals affected [1, 9]: 0
Skin thickening (paws), number of animals affected [1, 9]: 1
Swollen paws, number of animals affected [1, 9]: 5
Skin discoloration, number of animals affected [1, 10]: 2
Skin lesion w/discharge, number of animals affected [1, 10]: 3
Skin lesion, number of animals affected [1, 10]: 6
Skin scab paw, number of animals affected [1, 10]: 1
Skin thickening (paws), number of animals affected [1, 10]: 1
Swollen paws, number of animals affected [1, 10]: 6
Skin discoloration, number of animals affected [1, 11]: 0
Skin lesion w/discharge, number of animals affected [1, 11]: 4
Skin lesion, number of animals affected [1, 11]: 8
Skin scab paw, number of animals affected [1, 11]: 1
Skin thickening (paws), number of animals affected [1, 11]: 0
Swollen paws, number of animals affected [1, 11]: 3
ophthalmological or neurological findings associated with treatment ([1]; all dose levels): No ophthalmological or neurological findings
serious adverse effects or mortality ([1]; including at 5X overdose for 6 months): no serious adverse effects or mortality
tolerability ([1]; therapeutic dose (0.8 mg/kg)): well-tolerated
Body weight gain [2, 12]: 0.06 ± 0.02 kg
mean body weight (± standard error) throughout the study [2, 12]: 10.30 ± 0.20 kg
body weight, treatment effect vs control ([2]; 1X, 3X and 5X groups, main effect of treatment p = 0.0026): statistically significant increases
Body weight gain [2, 13]: 0.03 ± 0.02 kg
mean body weight (± standard error) throughout the study [2, 13]: 9.76 ± 0.20 kg
body weight change, treatment effect vs control ([2]; 3X and 5X, main effect of treatment p = 0.0952): statistically significant increases
Body weight gain [2, 14]: 0.06 ± 0.02 kg
mean body weight (± standard error) throughout the study [2, 14]: 10.31 ± 0.20 kg
Body weight gain [2, 15]: 0.06 ± 0.02 kg
mean body weight (± standard error) throughout the study [2, 15]: 10.46 ± 0.20 kg
weekly averaged daily food consumption, treatment effect ([2]; all dose groups): statistically significant (p = 0.0872) time by treatment interaction
red cell parameters ([3]; 1X group): stayed within the reference range
MCHC, effect compared to 0X ([3]; 2X (1.6 mg/kg/day)): minimally lower and ↓
Hb (hemoglobin), effect compared to 0X ([3]; 2X (1.6 mg/kg/day)): minimally lowered and ↓
Total Protein, effect compared to 0X ([3]; 2X (1.6 mg/kg/day)): ↑
MCH, effect compared to 0X ([3]; 3X (2.4 mg/kg/day)): minimally lower and ↓
MCHC, effect compared to 0X ([3]; 3X (2.4 mg/kg/day)): minimally lower and ↓
HCT (hematocrit), effect compared to 0X ([3]; 3X (2.4 mg/kg/day)): ↓
Hb (hemoglobin), effect compared to 0X ([3]; 3X (2.4 mg/kg/day)): minimally lowered and ↓
RBC, effect compared to 0X ([3]; 3X (2.4 mg/kg/day)): ↓
Total Protein, effect compared to 0X ([3]; 3X (2.4 mg/kg/day)): ↑
Albumin, effect compared to 0X ([3]; 3X (2.4 mg/kg/day)): minimally lower and ↓
Total Protein, effect compared to 0X (time by treatment interaction) ([3]; 3X (2.4 mg/kg/day), study day 113): minimally higher means and ↑
Eosinophils, effect compared to 0X ([3]; 3X (2.4 mg/kg/day)): ↓
Fibrinogen, effect compared to 0X ([3]; 3X (2.4 mg/kg/day)): marginally elevated concentrations and ↑
MCH, effect compared to 0X ([3]; 5X (4.0 mg/kg/day)): minimally lower and ↓
MCHC, effect compared to 0X ([3]; 5X (4.0 mg/kg/day)): minimally lower and ↓
HCT (hematocrit), effect compared to 0X ([3]; 5X (4.0 mg/kg/day)): ↓
Hb (hemoglobin), effect compared to 0X ([3]; 5X (4.0 mg/kg/day)): minimally lowered and ↓
RBC, effect compared to 0X ([3]; 5X (4.0 mg/kg/day)): ↓
Total Protein, effect compared to 0X ([3]; 5X (4.0 mg/kg/day)): ↑
Albumin, effect compared to 0X ([3]; 5X (4.0 mg/kg/day)): minimally lower and ↓
Eosinophils, effect compared to 0X ([3]; 5X (4.0 mg/kg/day)): ↓
Fibrinogen, effect compared to 0X ([3]; 5X (4.0 mg/kg/day)): marginally elevated concentrations and ↑
Total Protein, effect compared to 0X (time by treatment interaction) ([3]; 5X (4.0 mg/kg/day), study days 85,113,141): minimally higher means and ↑
myeloid: erythroid ratios ([3]; Two dogs in the 5X group): minimally lower
effects on lymphocytes, monocytes, basophils and reticulocytes ([3]; all dose levels): no treatment-related effects
alkaline phosphatase, alanine aminotransferase, aspartate aminotransferase, triglycerides, plasma creatinine and urea levels or any other clinical chemistry parameters ([3]; all treatment groups, within normal ranges): No changes
effects on urinalysis endpoints ([3]; either sex at any dose level): no test article-related effects
C-reactive protein (CRP) levels ([3]; elevated doses, dogs with visible skin disease): higher
Total protein values in males vs control ([3]; males at 2X, 3X, and 5X): significantly (p = 0.0437) higher
Mean globulin concentrations vs control means [3, 16]: minimally higher
mean albumin/globulin ratios vs control means [3, 16]: minimally to mildly lower
prothrombin time and activated partial thromboplastin time ([3]; throughout the study, all dose levels): remained in the reference range
Microscopic findings across all groups [4]: minimal and largely consistent with background pathology
combined adrenal gland weight vs controls [4]: increased combined adrenal gland weight
cutaneous lesions (microscopic), animals affected [4]: 5 out of 8
enlarged thyroid/parathyroid glands (incidental macroscopic finding) [4]: single case of enlarged thyroid/parathyroid glands
focal lesions on the lungs (incidental macroscopic finding) [4]: two focal lesions on the lungs
Weight gain in dogs under field conditions [5]: in very few cases
interdigital cysts (IDC) [6]: not observed
AUC ratio, study day 182 vs day 1 ([7]; group 2 (1X: 0.8 mg/kg)): 1.2
AUC ratio, study day 182 vs day 1 ([7]; group 3 (2X: 1.6 mg/kg)): 1.4
AUC ratio, study day 182 vs day 1 ([7]; group 4 (3X: 2.4 mg/kg)): 1.6
AUC ratio, study day 182 vs day 1 ([7]; group 5 (5X: 4.0 mg/kg)): 1.2

— PMC11881343, “Safety of ilunocitinib tablets (Zenrelia™) after once daily oral administration in dogs” (BMC Veterinary Research, 2025)
